Experimental data reported in the supplement of paper PMC6045584.
± gives the standard deviation of the averaged measurements.

Tests used:
[1] = compound: Cn1cc(C2=Nc3cc(NC(=O)C(N)C4CCCCC4)cc4c3C2=CNNC4=O)cn1; assay: area under dose-response curve of surviving fraction (unscaled, Aref=0) (surviving fraction x log10(nM)); higher = more resistant; conditions: exposure time: 5 days; dose range 0.5-1000 nM
How it was run: (§1)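 Inhibitor was applied to tumour cell lines at eight concentrations (0.5 to 1000 nM) for five days in 384-well plates. Luminescence from CellTiter-Glo, scaled to DMSO-only wells, gave surviving fractions in three screens per line, and these were fitted by 3-parameter logistic regression with the drc R package. The area under the curve is an unscaled activity area. Aref was 0, and dose was on a log10 scale.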

CANERTINIB [2] = compound: T1, C=CC(=O)Nc1cc2c(Nc3ccc(F)c(Cl)c3)ncnc2cc1OCCCN1CCOCC1 [CANERTINIB]; assay: as above; conditions: exposure time: 5 days; dose range 0.5-1000 nM
How it was run: as §1

MDV3100 [3] = compound: T2, CNC(=O)c1ccc(N2C(=S)N(c3ccc(C#N)c(C(F)(F)F)c3)C(=O)C2(C)C)cc1F [MDV3100]; assay: as above; conditions: exposure time: 5 days; dose range 0.5-1000 nM
How it was run: as §1

AFATINIB [4] = compound: T3, CN(C)C/C=C/C(=O)Nc1cc2c(Nc3ccc(F)c(Cl)c3)ncnc2cc1O[C@H]1CCOC1 [AFATINIB]; assay: as above; conditions: exposure time: 5 days; dose range 0.5-1000 nM
How it was run: as §1

SAPACITABINE [5] = compound: T4, CCCCCCCCCCCCCCCC(=O)Nc1ccn([C@@H]2O[C@H](CO)[C@@H](O)[C@@H]2C#N)c(=O)n1 [SAPACITABINE]; assay: as above; conditions: exposure time: 5 days; dose range 0.5-1000 nM
How it was run: as §1

SNX-5422 [6] = compound: T5, CC1(C)CC(=O)c2c(C(F)(F)F)nn(-c3ccc(C(N)=O)c(N[C@H]4CC[C@H](OC(=O)CN)CC4)c3)c2C1 [SNX-5422]; assay: as above; conditions: exposure time: 5 days; dose range 0.5-1000 nM
How it was run: as §1

BI-2536 [7] = compound: T6, CC[C@@H]1C(=O)N(C)c2cnc(Nc3ccc(C(=O)NC4CCN(C)CC4)cc3OC)nc2N1C1CCCC1 [BI-2536]; assay: as above; conditions: exposure time: 5 days; dose range 0.5-1000 nM
How it was run: as §1

TIOGUANINE [8] = compound: T7, Nc1nc2[nH]cnc2c(=S)[nH]1 [TIOGUANINE]; assay: as above; conditions: exposure time: 5 days; dose range 0.5-1000 nM
How it was run: as §1

[9] = compound: Cn1cc(C2=Nc3cc(NC(=O)C(N)C4CCCCC4)cc4c3C2=CNNC4=O)cn1; assay: surviving fraction relative to DMSO-only wells; higher = less growth inhibition; conditions: exposure time: 5 days
How it was run: (§2)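 After seeding at 250–500 cells per well in 384-well plates and a 24-hour wait, log-phase tumour cell lines were exposed without interruption for five days to inhibitors at 0.5, 1, 5, 10, 50, 100, 500 and 1000 nM. CellTiter-Glo luminescence was recorded after 10 minutes at room temperature. Viability is reported as surviving fraction, the luminescence normalised to the median of DMSO-only wells.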

CANERTINIB [10] = compound: T1, CANERTINIB; assay: as above; conditions: exposure time: 5 days
How it was run: as §2

MDV3100 [11] = compound: T2, MDV3100; assay: as above; conditions: exposure time: 5 days
How it was run: as §2

AFATINIB [12] = compound: T3, AFATINIB; assay: as above; conditions: exposure time: 5 days
How it was run: as §2

SAPACITABINE [13] = compound: T4, SAPACITABINE; assay: as above; conditions: exposure time: 5 days
How it was run: as §2

SNX-5422 [14] = compound: T5, SNX-5422; assay: as above; conditions: exposure time: 5 days
How it was run: as §2

BI-2536 [15] = compound: T6, BI-2536; assay: as above; conditions: exposure time: 5 days
How it was run: as §2

TIOGUANINE [16] = compound: T7, TIOGUANINE; assay: as above; conditions: exposure time: 5 days
How it was run: as §2

In the case of CADOES1 SOFT TISSUE, the “area under dose-response curve” value [1] is reported as 3.08, the “area under dose-response curve” value (CANERTINIB [2]) is reported as 3 and the “area under dose-response curve” value (MDV3100 [3]) is reported as 2.95. For the same test system, the “area under dose-response curve” value (AFATINIB [4]) was 2.94, the “area under dose-response curve” value (SAPACITABINE [5]) was 1.99 and the “area under dose-response curve” value (SNX-5422 [6]) was 1.95. The “area under dose-response curve” value (BI-2536 [7]) was 1.66, the “area under dose-response curve” value (TIOGUANINE [8]) was 3.12 and the surviving fraction ([9]; 0.5 nM) was 0.973 ± 0.13. For the same test system, the surviving fraction ([9]; 1 nM) was 0.933 ± 0.073, the surviving fraction ([9]; 5 nM) was 0.868 ± 0.011 and the surviving fraction ([9]; 10 nM) was 0.905 ± 0.051. The surviving fraction ([9]; 50 nM) was 0.88 ± 0.071, the surviving fraction ([9]; 100 nM) was 0.988 ± 0.13 and the surviving fraction ([9]; 500 nM) was 0.798 ± 0.068. The surviving fraction ([9]; 1000 nM) was 0.558 ± 0.027, the surviving fraction (CANERTINIB [10]; 0.5 nM) was 1 ± 0.13 and the surviving fraction (CANERTINIB [10]; 1 nM) was 0.945 ± 0.049. The surviving fraction (CANERTINIB [10]; 5 nM) was 0.945 ± 0.038, the surviving fraction (CANERTINIB [10]; 10 nM) was 0.93 ± 0.075 and the surviving fraction (CANERTINIB [10]; 50 nM) was 0.918 ± 0.17. The surviving fraction (CANERTINIB [10]; 100 nM) was 0.926 ± 0.029, the surviving fraction (CANERTINIB [10]; 500 nM) was 0.738 ± 0.12 and the surviving fraction (CANERTINIB [10]; 1000 nM) was 0.595 ± 0.035. For the same test system, the surviving fraction (MDV3100 [11]; 0.5 nM) was 0.925 ± 0.1, the surviving fraction (MDV3100 [11]; 1 nM) was 0.911 ± 0.12 and the surviving fraction (MDV3100 [11]; 5 nM) was 0.777 ± 0.092. For the same test system, the surviving fraction (MDV3100 [11]; 10 nM) was 0.848 ± 0.07, the surviving fraction (MDV3100 [11]; 50 nM) was 0.871 ± 0.087 and the surviving fraction (MDV3100 [11]; 100 nM) was 0.899 ± 0.093. It also gave a surviving fraction (MDV3100 [11]; 500 nM) of 0.955 ± 0.068, a surviving fraction (MDV3100 [11]; 1000 nM) of 1.05 ± 0.02 and a surviving fraction (AFATINIB [12]; 0.5 nM) of 0.833 ± 0.033. It also gave a surviving fraction (AFATINIB [12]; 1 nM) of 0.909 ± 0.063, a surviving fraction (AFATINIB [12]; 5 nM) of 0.914 ± 0.0056 and a surviving fraction (AFATINIB [12]; 10 nM) of 0.98 ± 0.011. The surviving fraction (AFATINIB [12]; 50 nM) was 0.837 ± 0.018, the surviving fraction (AFATINIB [12]; 100 nM) was 0.997 ± 0.024 and the surviving fraction (AFATINIB [12]; 500 nM) was 0.931 ± 0.11. For the same test system, the surviving fraction (AFATINIB [12]; 1000 nM) was 0.724 ± 0.051, the surviving fraction (SAPACITABINE [13]; 0.5 nM) was 1.04 ± 0.053 and the surviving fraction (SAPACITABINE [13]; 1 nM) was 1.03 ± 0.022. The surviving fraction (SAPACITABINE [13]; 5 nM) was 0.915 ± 0.11, the surviving fraction (SAPACITABINE [13]; 10 nM) was 0.857 ± 0.074 and the surviving fraction (SAPACITABINE [13]; 50 nM) was 0.553 ± 0.075. The surviving fraction (SAPACITABINE [13]; 100 nM) was 0.209 ± 0.066, the surviving fraction (SAPACITABINE [13]; 500 nM) was 0.0497 ± 0.0072 and the surviving fraction (SAPACITABINE [13]; 1000 nM) was 0.0437 ± 0.0035. The surviving fraction (SNX-5422 [14]; 0.5 nM) was 0.975 ± 0.13, the surviving fraction (SNX-5422 [14]; 1 nM) was 0.967 ± 0.089 and the surviving fraction (SNX-5422 [14]; 5 nM) was 1.07 ± 0.04. The surviving fraction (SNX-5422 [14]; 10 nM) was 0.943 ± 0.11, the surviving fraction (SNX-5422 [14]; 50 nM) was 0.365 ± 0.064 and the surviving fraction (SNX-5422 [14]; 100 nM) was 0.122 ± 0.02. It also gave a surviving fraction (SNX-5422 [14]; 500 nM) of 0.061 ± 0.0056, a surviving fraction (SNX-5422 [14]; 1000 nM) of 0.0547 ± 0.00058 and a surviving fraction (BI-2536 [15]; 0.5 nM) of 1.04 ± 0.059. It also gave a surviving fraction (BI-2536 [15]; 1 nM) of 0.939 ± 0.059, a surviving fraction (BI-2536 [15]; 5 nM) of 0.872 ± 0.093 and a surviving fraction (BI-2536 [15]; 10 nM) of 0.792 ± 0.12. It also gave a surviving fraction (BI-2536 [15]; 50 nM) of 0.193 ± 0.025, a surviving fraction (BI-2536 [15]; 100 nM) of 0.0877 ± 0.018 and a surviving fraction (BI-2536 [15]; 500 nM) of 0.0517 ± 0.016. It also gave a surviving fraction (BI-2536 [15]; 1000 nM) of 0.0513 ± 0.0051, a surviving fraction (TIOGUANINE [16]; 0.5 nM) of 0.965 ± 0.12 and a surviving fraction (TIOGUANINE [16]; 1 nM) of 0.922 ± 0.059. The surviving fraction (TIOGUANINE [16]; 5 nM) was 0.93 ± 0.067, the surviving fraction (TIOGUANINE [16]; 10 nM) was 0.955 ± 0.045 and the surviving fraction (TIOGUANINE [16]; 50 nM) was 0.989 ± 0.15. It also gave a surviving fraction (TIOGUANINE [16]; 100 nM) of 0.952 ± 0.097, a surviving fraction (TIOGUANINE [16]; 500 nM) of 0.842 ± 0.095 and a surviving fraction (TIOGUANINE [16]; 1000 nM) of 0.78 ± 0.048.
